Laboratory results taken from US8673908B2, “Kynurenine production inhibitor” (Kyowa Hakko Kirin Co., Ltd., priority 2008, dated 2014).

The molecules below were run on kynurenine production in IFN-γ-treated KATO-III cells (assay: Inhibitory activity on kynurenine production (Test Example 1)). Conditions: Homo sapiens, IFN-γ treatment, culture for 96 hours, read-out: IC50 value, inhibition of kynurenine production.
Type: cell-based
Protocol: This assay was performed according to a method modified from the method described in the Journal of Biological Chemistry (J. Biol. Chem.), vol. 263, pp. 2041-2048 (1988). Culture of KATO-III derived from human gastric cancer cells was performed by use of RPMI 1640 (GIBCO, 11875) supplemented with 10 vol % FBS (GIBCO, 10091-148, lot. 665285). 1 μL of a DMSO solution of the test substance was diluted with 199 μL of the culture medium, and the diluted solution was added to wells of a 384 well plate (10 μL/well). Then, IFN-γ (Sigma, 1-3265) was added to the culture medium so that the concentration of IFN-γ was 31.25 ng/mL, and the KATO-III cells were suspended at 50,000 cells/ml, in the culture medium. 40 μL of the suspension was added to each well (2,000 cells/well), and culture of the KATO-III cells was performed at 37° C. under a 5% CO2 atmosphere for 96 hours. The final concentration of DMSO was limited to 0.1 vol % or less so that DMSO itself might not affect the kynurenine concentration measured by this assay. After the culture, 10 μL of a 30 w/v % aqueous trichloroacetic acid solution was added to each well, and incubation was performed at 65° C. for 30 minutes. The plate was centrifuged at 2,500×g for 5 minutes, and then 15 μL of the supernatant in each well was transferred into another 384 well plate. To each of the transferred supernatants, 15 μL of a 2 w/v % solution of p-dimethylaminobenzaldehyde in acetic acid was added, incubation was performed at 65° C. for 20 minutes, and then the absorbance at 480 nm was measured.
[formula] Sample: the absorbance value of the well to which a DMSO solution containing the test substance was added and in which cells were treated with IFN-γ. Blank: the absorbance value of the well to which only DMSO, not the test substance was added and in which cells were treated with IFN-γ. Control: the absorbance value of the well to which only DMSO, not the test substance was added and in which cells were not treated with IFN-γ.
In this assay, expression of IDO in KATO-III cells is induced by IFN-γ treatment and then kynurenine in the culture medium is quantified. It is known that the kynurenine concentration in a culture medium increases in proportion to the enzymatic activity of intracellular IDO (for example, the Journal of Biological Chemistry (J. Biol. Chem.), vol. 263, pp. 2041-2048 (1988)). […] It is known that kynurenine production is inhibited by IDO inhibitors (for example, the Journal of Clinical Investigation (J. Clin. Invest.), vol. 117, No. 5, pp. 1147-1154 […]), and thus it is expected that Compound (I) also has an inhibitory effect on IDO.

Structure (SMILES) | IC50
COc1ccc(COc2nc(Cl)cnc2NS(=O)(=O)c2cccc(Cl)c2Cl)cc1 [Compound 2] | 1 to 10 µM
O=S(=O)(Nc1ncc(Cl)nc1OCc1ccc2ccccc2c1)c1cccc(Cl)c1Cl [Compound 3] | 1 to 10 µM
COc1ccc(COc2nc3cccnc3nc2NS(=O)(=O)c2cccc(Cl)c2Cl)cc1 [Compound 5] | 1 to 10 µM
O=S(=O)(Nc1nc2ccccc2nc1OCc1cccnc1)c1cccc(Cl)c1Cl [Compound 6, 2,3-dichloro-N-{3-[(pyridin-3-yl)methoxy]quinoxalin-2-yl}-benzenesulfonamide] | 1 to 10 µM
O=S(=O)(Nc1nc2ccccc2nc1OCc1ccc2ccccc2c1)c1cccc(Cl)c1Cl [Compound 10, 2,3-dichloro-N-{3-[(2-naphthyl)methoxy]quinoxalin-2-yl}-benzenesulfonamide] | < 1 µM
O=S(=O)(Nc1nc2ccccc2nc1OCc1ccc2ccccc2c1)c1cccc2ccccc12 [Compound 11, N-{3-[(2-naphthyl)methoxy]quinoxalin-2-yl}-1-naphthalenesulfonamide] | < 1 µM
Cc1ccc(S(=O)(=O)Nc2nc3ccccc3nc2OCc2ccc3ccccc3c2)cc1 [Compound 13, N-{3-[(2-naphthyl)methoxy]quinoxalin-2-yl}-4-toluenesulfonamide] | 1 to 10 µM

More lines, now with the values ahead:

IC50 | Structure (SMILES)
< 1 µM | O=S(=O)(Nc1nc2ccccc2nc1OCc1ccc2ccccc2c1)c1cc(Cl)cc(Cl)c1 [Compound 15, 3,5-dichloro-N-{3-[(2-naphthyl)methoxy]quinoxalin-2-yl}-benzenesulfonamide]
< 1 µM | O=S(=O)(Nc1nc2ccccc2nc1OCc1cccc(C(F)(F)F)c1)c1cccc(Cl)c1Cl [Compound 18, 2,3-dichloro-N-{3-[(3-trifluoromethylphenyl)methoxy]-quinoxalin-2-yl}benzenesulfonamide]
< 1 µM | O=S(=O)(Nc1nc2ccccc2nc1OCc1ccc2ccccc2c1)c1ccccc1C(F)(F)F [Compound 21, 2-(trifluoromethyl)-N-{3-[(2-naphthyl)methoxy]quinoxalin-2-yl}benzenesulfonamide]
< 1 µM | O=S(=O)(Nc1nc2ccccc2nc1OCc1ccc2ccccc2c1)c1cccc(C(F)(F)F)c1 [Compound 22, 3-(trifluoromethyl)-N-{3-[(2-naphthyl)methoxy]quinoxalin-2-yl}benzenesulfonamide]
< 1 µM | O=S(=O)(Nc1nc2ccccc2nc1OCc1ccc2ccccc2c1)c1ccc(C(F)(F)F)cc1 [Compound 23, 4-(trifluoromethyl)-N-{3-[(2-naphthyl)methoxy]quinoxalin-2-yl}benzenesulfonamide]
< 1 µM | O=S(=O)(Nc1nc2ccccc2nc1OCc1ccc2ncccc2c1)c1cccc(Cl)c1Cl [Compound 24, 2,3-dichloro-N-{3-[(quinolin-6-yl)methoxy]quinoxalin-2-yl}-benzenesulfonamide]
1 to 10 µM | O=S(=O)(Nc1nc2ccccc2nc1OCc1ccncc1)c1cccc(Cl)c1Cl [Compound 26, 2,3-dichloro-N-{3-[(pyridin-4-yl)methoxy]quinoxalin-2-yl}-benzenesulfonamide]
< 1 µM | O=S(=O)(Nc1nc2ccccc2nc1OCc1ccc2ccccc2c1)c1c(Cl)cccc1Cl [Compound 27, 2,6-dichloro-N-{3-[(2-naphthyl)methoxy]quinoxalin-2-yl}-benzenesulfonamide]
< 1 µM | O=S(=O)(Nc1nc2ccccc2nc1OCc1ccc2ccccc2c1)c1cc(Cl)ccc1Cl [Compound 28, 2,5-dichloro-N-{3-[(2-naphthyl)methoxy]quinoxalin-2-yl}-benzenesulfonamide]
< 1 µM | O=S(=O)(Nc1nc2ccccc2nc1OCc1ccc2ccccc2c1)c1ccc(Cl)cc1Cl [Compound 29, 2,4-dichloro-N-{3-[(2-naphthyl)methoxy]quinoxalin-2-yl}-benzenesulfonamide]
1 to 10 µM | O=S(=O)(Nc1nc2ccccc2nc1OCc1ccc2ccccc2c1)c1ccc(Cl)c(Cl)c1 [Compound 30, 3,4-dichloro-N-{3-[(2-naphthyl)methoxy]quinoxalin-2-yl}-benzenesulfonamide]
